Assay results as given in the NIST ThermoML archive (doi:10.1021/je050223a).
Numbers after ± are expanded uncertainties.

Assays:
[1] = 101.33 kPa, Liquid
[2] = xn = mol fraction of the nth substance listed; conditions: 101.33 kPa, Liquid

C=C(C)C(=O)OCCO [2-hydroxyethyl 2-methyl-2-propenoate]
[1]
Conditions	mass density [kg/m3]	viscosity [mPa·s]
298.15 K	1067.1 ± 2.4	5.784 ± 0.14
308.15 K	1057.7 ± 2.4	4.194 ± 0.1
318.15 K	1048.6 ± 2.4	3.181 ± 0.078

C=C(C)C(=O)OCCO [2-hydroxyethyl 2-methyl-2-propenoate] + CCOCCC(=O)OCC
[2], x2 = 0
Conditions	mass density [kg/m3]	viscosity [mPa·s]
298.15 K	1067.1 ± 2.4	5.784 ± 0.14
308.15 K	1057.7 ± 2.4	4.194 ± 0.1
318.15 K	1048.6 ± 2.4	3.181 ± 0.078

C=C(C)C(=O)O [2-methyl-2-propenoic acid]
[1]
Conditions	mass density [kg/m3]	viscosity [mPa·s]
298.15 K	1009.5 ± 2.1	1.267 ± 0.029
308.15 K	999.4 ± 2.1	1.078 ± 0.025
318.15 K	989.2 ± 2.1	0.945 ± 0.022

C=C(C)C(=O)O [2-methyl-2-propenoic acid] + CCOCCC(=O)OCC
[2], x2 = 0
Conditions	mass density [kg/m3]	viscosity [mPa·s]
298.15 K	1009.5 ± 2.1	1.267 ± 0.029
308.15 K	999.4 ± 2.1	1.078 ± 0.025
318.15 K	989.2 ± 2.1	0.945 ± 0.022

C=C(C)C(=O)OCc1ccccc1 [benzyl methacrylate]
[1]
Conditions	mass density [kg/m3]	viscosity [mPa·s]
298.15 K	1034.7 ± 2.4	2.302 ± 0.057
308.15 K	1025.8 ± 2.4	1.885 ± 0.047
318.15 K	1017 ± 2.3	1.58 ± 0.039

C=C(C)C(=O)OCc1ccccc1 [benzyl methacrylate] + CCOCCC(=O)OCC
[2], x2 = 0
Conditions	mass density [kg/m3]	viscosity [mPa·s]
298.15 K	1034.7 ± 2.4	2.302 ± 0.057
308.15 K	1025.8 ± 2.4	1.885 ± 0.047
318.15 K	1017 ± 2.3	1.58 ± 0.039

CCCCO [butan-1-ol]
[1]
Conditions	mass density, 298.15 K [kg/m3]	mass density, 303.15 K [kg/m3]	mass density, 308.15 K [kg/m3]	mass density, 313.15 K [kg/m3]	viscosity, 298.15 K [mPa·s]	viscosity, 303.15 K [mPa·s]	viscosity, 308.15 K [mPa·s]	viscosity, 313.15 K [mPa·s]
Capillary tube (Ostwald / Ubbelohde) method	–	–	–	–	2.566 ± 0.083	2.265 ± 0.073	1.998 ± 0.065	1.778 ± 0.058
Pycnometric method	805.6 ± 2.7	802.1 ± 2.7	798 ± 2.6	794.5 ± 2.6	–	–	–	–

CCOCCC(=O)OCC [ethyl β-ethoxypropionate]
[1]
Conditions	mass density [kg/m3]	viscosity [mPa·s]
298.15 K	943.2 ± 2	1.176 ± 0.028
308.15 K	933.4 ± 2	0.996 ± 0.023
318.15 K	923.3 ± 2	0.859 ± 0.02

CCOCCC(=O)OCC [ethyl β-ethoxypropionate] + C=C(C)C(=O)O
[2]
Conditions	mass density, 298.15 K [kg/m3]	mass density, 308.15 K [kg/m3]	mass density, 318.15 K [kg/m3]	viscosity, 298.15 K [mPa·s]	viscosity, 308.15 K [mPa·s]	viscosity, 318.15 K [mPa·s]
x1 = 0.1	1000.5 ± 2.1	990.7 ± 2.1	980.6 ± 2	1.349 ± 0.031	1.139 ± 0.026	0.986 ± 0.023
x1 = 0.1999	992.4 ± 2.1	982.7 ± 2	972.8 ± 2	1.425 ± 0.033	1.198 ± 0.028	1.028 ± 0.024
x1 = 0.3	984.9 ± 2	975.1 ± 2	965.2 ± 2	1.504 ± 0.035	1.257 ± 0.029	1.075 ± 0.025
x1 = 0.4	978.1 ± 2	968.3 ± 2	958.4 ± 2	1.551 ± 0.036	1.293 ± 0.03	1.103 ± 0.026
x1 = 0.5	971.5 ± 2	961.7 ± 2	951.9 ± 2	1.516 ± 0.035	1.262 ± 0.029	1.08 ± 0.025
x1 = 0.6	965.3 ± 2	955.6 ± 2	945.7 ± 2	1.439 ± 0.033	1.211 ± 0.028	1.029 ± 0.024
x1 = 0.7	959.5 ± 2	949.8 ± 2	939.8 ± 2	1.369 ± 0.032	1.156 ± 0.027	0.982 ± 0.023
x1 = 0.8	954.1 ± 2	944.4 ± 2	934.4 ± 2	1.313 ± 0.03	1.108 ± 0.026	0.944 ± 0.022
x1 = 0.8999	948.5 ± 2	938.9 ± 2	929.1 ± 2	1.243 ± 0.029	1.049 ± 0.025	0.899 ± 0.021
x1 = 1	943.2 ± 2	933.4 ± 2	923.3 ± 2	1.176 ± 0.028	0.996 ± 0.023	0.859 ± 0.02

CCOCCC(=O)OCC [ethyl β-ethoxypropionate] + C=C(C)C(=O)OCCO
[2]
Conditions	mass density, 298.15 K [kg/m3]	mass density, 308.15 K [kg/m3]	mass density, 318.15 K [kg/m3]	viscosity, 298.15 K [mPa·s]	viscosity, 308.15 K [mPa·s]	viscosity, 318.15 K [mPa·s]
x1 = 0.1	1053 ± 2.4	1043.6 ± 2.4	1034.4 ± 2.4	4.507 ± 0.11	3.352 ± 0.082	2.598 ± 0.063
x1 = 0.2	1039.1 ± 2.3	1029.6 ± 2.3	1020.3 ± 2.3	3.696 ± 0.089	2.821 ± 0.068	2.239 ± 0.054
x1 = 0.3	1025.6 ± 2.3	1016.1 ± 2.3	1006.6 ± 2.3	3.072 ± 0.074	2.379 ± 0.057	1.918 ± 0.046
x1 = 0.4	1012.7 ± 2.2	1003.1 ± 2.2	993.5 ± 2.2	2.503 ± 0.06	1.98 ± 0.047	1.611 ± 0.039
x1 = 0.5	1000.2 ± 2.2	990.5 ± 2.2	980.8 ± 2.2	2.156 ± 0.051	1.731 ± 0.041	1.425 ± 0.034
x1 = 0.6	988.1 ± 2.1	978.4 ± 2.1	968.6 ± 2.1	1.833 ± 0.043	1.495 ± 0.036	1.243 ± 0.03
x1 = 0.6999	976.5 ± 2.1	966.8 ± 2.1	956.9 ± 2.1	1.627 ± 0.038	1.34 ± 0.032	1.127 ± 0.027
x1 = 0.8	965.2 ± 2.1	955.5 ± 2.1	945.6 ± 2	1.417 ± 0.033	1.181 ± 0.028	1.007 ± 0.024
x1 = 0.9	954.3 ± 2	944.6 ± 2	934.6 ± 2	1.269 ± 0.03	1.065 ± 0.025	0.911 ± 0.022
x1 = 1	943.2 ± 2	933.4 ± 2	923.3 ± 2	1.176 ± 0.028	0.996 ± 0.023	0.859 ± 0.02

CCOCCC(=O)OCC [ethyl β-ethoxypropionate] + C=C(C)C(=O)OCc1ccccc1
[2]
Conditions	mass density, 298.15 K [kg/m3]	mass density, 308.15 K [kg/m3]	mass density, 318.15 K [kg/m3]	viscosity, 298.15 K [mPa·s]	viscosity, 308.15 K [mPa·s]	viscosity, 318.15 K [mPa·s]
x1 = 0.1	1027 ± 2.3	1017.9 ± 2.3	1008.9 ± 2.3	2.16 ± 0.053	1.767 ± 0.043	1.479 ± 0.036
x1 = 0.2	1019.1 ± 2.3	1009.9 ± 2.3	1000.7 ± 2.3	2.027 ± 0.049	1.664 ± 0.041	1.398 ± 0.034
x1 = 0.3	1010.9 ± 2.3	1001.5 ± 2.2	992.1 ± 2.2	1.91 ± 0.046	1.571 ± 0.038	1.323 ± 0.032
x1 = 0.4	1002.3 ± 2.2	992.7 ± 2.2	983.2 ± 2.2	1.795 ± 0.043	1.48 ± 0.036	1.247 ± 0.03
x1 = 0.4999	993.4 ± 2.2	983.7 ± 2.2	974 ± 2.1	1.681 ± 0.04	1.391 ± 0.033	1.173 ± 0.028
x1 = 0.6	984.2 ± 2.1	974.4 ± 2.1	964.5 ± 2.1	1.569 ± 0.037	1.303 ± 0.031	1.101 ± 0.026
x1 = 0.7	974.7 ± 2.1	964.8 ± 2.1	954.7 ± 2.1	1.457 ± 0.034	1.215 ± 0.029	1.029 ± 0.025
x1 = 0.8	964.9 ± 2.1	954.9 ± 2.1	944.6 ± 2	1.347 ± 0.032	1.129 ± 0.027	0.961 ± 0.023
x1 = 0.9	954.3 ± 2	944.3 ± 2	934.1 ± 2	1.242 ± 0.029	1.047 ± 0.025	0.899 ± 0.021
x1 = 1	943.2 ± 2	933.4 ± 2	923.3 ± 2	1.176 ± 0.028	0.996 ± 0.023	0.859 ± 0.02
